# Results from PubChem BioAssay AID1919016 (Molecular Pharmacology Branch, DTP, NCI, 2023).
# System: NCI-H196 complex spheroid growth, percent test/control
# Experiment: Anticancer human tumor NCI-H196 cell line growth inhibition [AhR];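 further: seven days of drug exposure starting three days after plating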;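 on viability, T/C: 100% = DMSO vehicle control wells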
# Details: for IC50: curve of first compound; for viability, T/C: stronger effect = lower value
# Text: Multicellular complex tumor spheroid response to aryl hydrocarbon receptor antagonists in combination with a variety of drugs and investigational agents in selected tumor cell lines
# The current study was undertaken to assess response to aryl hydrocarbon receptor antagonists in combination with standard-of-care drugs and investigational agents in solid tumor complex spheroid models. Complex spheroids include a stromal component modeled by human endothelial cells (HUVEC) and fibroblasts modeled by human mesenchymal stem cells (MSCs). The concentration ranges selected for each drug and investigational agent were based upon clinically achievable concentrations if the clinical Cmax of the agent was known.
# Compounds. The drugs and investigational agents: BAY 2416964 (NSC825713), GNF351 (NSC835774), CH-223191 (NSC835775), CPI-455 (NSC825282), aza-TdCyd (NSC777586), decitabine (NSC127716), belinostat (NSC758774), entinostat (NSC756642), pevonedistat (NSC761192), tazemetostat (NSC777109), talazoparib (NSC765396), olaparib (NSC753686), selinexor (NSC780203), nedisertib (M3814, NSC802822), bortezomib (NSC756655), venetoclax (NSC766270), doxorubicin (NSC123127), elimusertib (BAY189344, NSC800525), ceralasertib (AZD6738, NSC777638), TAK-243 (NSC785004), alisertib (NSC759677), etoposide (NSC141540), topotecan (NSC609699), eribulin (NSC707389), gemcitabine (NSC613327), carboplatin (NSC241240), cisplatin (NSC119875), and SN-38 (NSC673596) were obtained from the National Cancer Institute (NCI) Developmental Therapeutics Program Chemical Repository (32). The FDA-approved anticancer drug set is available from the Developmental Therapeutics Program at https://dtp.cancer.gov/organization/dscb/obtaining/available plates.htm. […] The stock solutions were prepared in dimethyl sulfoxide (DMSO, Sigma-Aldrich, St. Louis, MO, cat. D2650), except for the platinum compounds which were prepared in saline (Quality Biological, Gaithersburg, MD, cat. 114-055-101), at 800-fold the tested concentration and stored at -70 degrees C prior to their use. All drugs and investigational agents were tested over a range starting from a high concentration at or near the clinical Cmax and decreasing in half-log increments. If the clinical Cmax for an agent had not been determined, the highest concentration tested was 10 microM (Table 1).
# Cell Culture. All cells were maintained in an incubator at 37 degrees C and 5% CO2 with 95% humidity. The PDC lines were cultured according to standard operating procedures established by the NCI PDMR (https://pdmr.cancer.gov). Briefly, all PDCs were thawed and cultured in Matrigel-coated flasks prepared with a working solution of 1X Ham's F-12 nutrient mix, without supplementation (Invitrogen, Waltham, MA, cat. 11765054), 100 U/mL penicillin-streptomycin (Invitrogen, cat. 15140122), and 2.5% Matrigel (Corning Inc., Corning, NY, cat. 354248) for the first three passages. All PDCs were cultured in complete DMEM/F-12 media containing advanced DMEM/F-12 (Invitrogen, cat. 12634028), 4.9% defined fetal bovine serum, heat inactivated (HyClone Laboratories Inc., Logan, UT, cat. SH30070.03HI), 389 ng/mL hydrocortisone (Sigma-Aldrich, cat. H4001), 9.7 ng/mL human EGF recombinant protein (Invitrogen, cat. PHG0313), 23.4 microg/mL adenine (Sigma-Aldrich, cat. A2786), 97.3 U/mL penicillin-streptomycin (Invitrogen, cat. 15140122), 1.9 mM L-glutamine (Invitrogen, cat. 25030081), and 9.7 microM Y-27632 dihydrochloride (Tocris Bioscience, Bristol, United Kingdom, cat. 1254). The PDCs were cultured in complete DMEM/F12 media without 10 microM Y-27632 dihydrochloride for at least two passages prior to the screen. The established cell lines NCI-H1341 and […] were cultured in DMEM/F-12, HEPES (Invitrogen, cat. 11330032), 5% defined fetal bovine serum (HyClone Laboratories Inc., cat. SH30070.03), ITS premix universal culture supplement [insulin (5 microg/mL), transferrin (5 microg/mL), and selenious acid (5 ng/mL)] […]
# [1] = second compound 0.1 µM, first compound 0.0316 µM
# [2] = second compound 0.1 µM, first compound 0.1 µM
# [3] = second compound 0.1 µM, first compound 0.316 µM
# [4] = second compound 0.1 µM, first compound 1 µM
# [5] = second compound 0.1 µM, first compound 3.16 µM
# [6] = second compound 0.1 µM, first compound 10 µM
# [7] = second compound 0.316 µM, first compound 0.0316 µM
# [8] = second compound 0.316 µM, first compound 0.1 µM
# [9] = second compound 0.316 µM, first compound 0.316 µM
# [10] = second compound 0.316 µM, first compound 1 µM
# [11] = second compound 0.316 µM, first compound 3.16 µM
# [12] = second compound 0.316 µM, first compound 10 µM
# [13] = second compound 1 µM, first compound 0.0316 µM
# [14] = second compound 1 µM, first compound 0.1 µM
# [15] = second compound 1 µM, first compound 0.316 µM
# [16] = second compound 1 µM, first compound 1 µM
# [17] = second compound 1 µM, first compound 3.16 µM
# [18] = second compound 1 µM, first compound 10 µM
# [19] = second compound 3.16 µM, first compound 0.0316 µM
# [20] = second compound 3.16 µM, first compound 0.1 µM
# [21] = second compound 3.16 µM, first compound 0.316 µM
# [22] = second compound 3.16 µM, first compound 1 µM
# [23] = second compound 3.16 µM, first compound 3.16 µM
# [24] = second compound 3.16 µM, first compound 10 µM
# [25] = second compound 10 µM, first compound 0.0316 µM
# [26] = second compound 10 µM, first compound 0.1 µM
# [27] = second compound 10 µM, first compound 0.316 µM
# [28] = second compound 10 µM, first compound 1 µM
# [29] = second compound 10 µM, first compound 3.16 µM
# [30] = second compound 10 µM, first compound 10 µM
SMILES,IC50 (second compound 0.1 µM) [µM],IC50 (second compound 0.316 µM) [µM],IC50 (second compound 1 µM) [µM],IC50 (second compound 3.16 µM) [µM],IC50 (second compound 10 µM) [µM],"viability, T/C [1] [%]","viability, T/C [2] [%]","viability, T/C [3] [%]","viability, T/C [4] [%]","viability, T/C [5] [%]","viability, T/C [6] [%]","viability, T/C [7] [%]","viability, T/C [8] [%]","viability, T/C [9] [%]","viability, T/C [10] [%]","viability, T/C [11] [%]","viability, T/C [12] [%]","viability, T/C [13] [%]","viability, T/C [14] [%]","viability, T/C [15] [%]",other results
COc1cc(C2c3cc4c(cc3C(OC3OC5COC(C)OC5C(O)C3O)C3COC(=O)C23)OCO4)cc(OC)c1O (stereo not given) + Cc1ccccc1N=Nc1ccc(NC(=O)c2ccnn2C)c(C)c1,> 10,> 10,> 10,> 10,> 10,97.3,93.5,87.4,86.2,87.9,76.8,92.1,95,96.8,89.8,91.2,75.6,93.5,94.6,93.5,"viability, T/C [16]: 92.1%; viability, T/C [17]: 100%; viability, T/C [18]: 74.3%; viability, T/C [19]: 89%; viability, T/C [20]: 94.7%; viability, T/C [21]: 91.4%; viability, T/C [22]: 79.5%; viability, T/C [23]: 87.1%; viability, T/C [24]: 75.3%; viability, T/C [25]: 85.7%; viability, T/C [26]: 84.3%; viability, T/C [27]: 89.3%; viability, T/C [28]: 93%; viability, T/C [29]: 88%; viability, T/C [30]: 78.9%"
NS(=O)(=O)OCC1CC(n2ccc3c(NC4CCc5ccccc54)ncnc32)CC1O (stereo not given) + Cc1ccccc1N=Nc1ccc(NC(=O)c2ccnn2C)c(C)c1,> 10,> 10,> 10,> 10,2.07,83.7,84.2,76.6,55.9,70.2,70,79.7,81.2,81.5,67.4,74.6,61,90.1,87.6,85.9,"viability, T/C [16]: 60.6%; viability, T/C [17]: 73.7%; viability, T/C [18]: 60.8%; viability, T/C [19]: 82.4%; viability, T/C [20]: 90.7%; viability, T/C [21]: 81.6%; viability, T/C [22]: 61.5%; viability, T/C [23]: 60.9%; viability, T/C [24]: 58.8%; viability, T/C [25]: 83.8%; viability, T/C [26]: 87.1%; viability, T/C [27]: 68.2%; viability, T/C [28]: 55.5%; viability, T/C [29]: 46.7%; viability, T/C [30]: 47.4%"
CC1COCCN1c1cc(C2(S(C)(=N)=O)CC2)nc(-c2ccnc3[nH]ccc23)n1 (stereo not given) + Cc1cncc(-c2nc(NCCc3c[nH]c4ccccc34)c3ncn(C(C)C)c3n2)c1,> 10,> 10,> 10,> 10,> 10,104,103,91,90.1,88.9,74.5,100,101,101,90.3,85.3,64.5,98.5,96,99.8,"viability, T/C [16]: 96.9%; viability, T/C [17]: 86.9%; viability, T/C [18]: 73.1%; viability, T/C [19]: 108%; viability, T/C [20]: 103%; viability, T/C [21]: 104%; viability, T/C [22]: 96%; viability, T/C [23]: 98.8%; viability, T/C [24]: 71.9%; viability, T/C [25]: 77.3%; viability, T/C [26]: 96.6%; viability, T/C [27]: 87.6%; viability, T/C [28]: 83.7%; viability, T/C [29]: 79.3%; viability, T/C [30]: 76.4%"
